{
  "source": "patent US8354451B2",
  "about": "“Treatment of microbial infections with compounds that inhibit 4-hydroxyphenylpyruvate dioxygenase” (The UWM Research Foundation, Inc., priority 2009, dated 2013)",
  "type_in_all_cases": "cell-based, Burkholderia cenocepacia",
  "key": {"B. cenocepacia MH1J": {"system": "B. cenocepacia MH1J", "assay": "Pigment (pyomelanin) production, supernatant OD597", "conditions": "24 h culture", "protocol": "FIG. 1. NTBC decreases pigment production in B. cenocepacia. B. cenocepacia strains C5424 and MH1J were cultured in presence or absence of NTBC in flasks during 24 h. An aliquot of this culture was used to take the picture in A. To quantify pigment production, 1 ml of culture was centrifuged at 14,000 rpm by 5 min to pellet bacteria. The pigment in the supernatant was quantified at an OD597 nm. The graphic (B) was generated with the results of two independent experiments. Values represent the mean±SD of two independent experiments. ***, p<0.001, Mock (untreated) versus treated with 10 and 100 μM of NTBC.\nTo test the ability of NTBC 2-[2-nitro-4-(trifluoromethyl)benzoyl]-1,3-cyclohexanedione (NTBC) to decrease pigment production by Burkholderia cenocepacia strains, two strains with the ability to produce pigment were used: (i) the previously described B. cenocepacia C5424, and (ii) B. cenocepacia MH1J, strain with susceptibility to gentamicin.\nBacteria were grown in 10 ml of Luria-Bertani (LB) broth at 37° C. with shaking, using 250 mL-flasks. B. cenocepacia C5424 produced significant pigment at 24 h of culture and MH1J required 48 h to form high pigment production. To quantify the pigment produced by both strains a 1 mL culture was taken at 24 hrs of incubation and the bacteria were pelleted by centrifugation at 14,000 r.p.m. for 5 min. […]"}, "[1]": {"system": "B. cenocepacia C5424 and MH1J", "assay": "Growth rate, BIOSCREEN growth curve analysis", "conditions": "10 μM and 100 μM NTBC, OD600 over 24 h", "protocol": "FIG. 2. Effect of NTBC on growth and viability of B. cenocepacia. B. cenocepacia C5424 (upper graph) and MH1J (lower graph) were cultured in 300 ml of LB by triplicates. Cultures were started at an OD600 of 0.1 and OD600 readings were taken every 30 min over 24 h using the BIOSCREEN® system.\nTo assess growth rate, overnight cultures were inoculated into fresh medium with a starting optical density at 600 (OD600) of 0.1. Growth rates were determined in 100-well microtiter plates by use of a BIOSCREEN® C automated microbiology growth curve analysis system (MTX Lab Systems, Inc., Vienna, Va.) under high-amplitude shaking conditions.\n(§1) B. cenocepacia C5424 and MH1J were cultured in the presence of 10 μM and 100 μM NTBC and assayed for growth rates using the BIOSCREEN® system (FIG. 2). Bacterial viability was examined under similar treatment conditions by fluorescence microscopy using the LIVE/DEAD® kit (Molecular Probes, Invitrogen)."}, "[2]": {"system": "B. cenocepacia C5424 and MH1J", "assay": "Bacterial viability, LIVE/DEAD fluorescence microscopy", "conditions": "10 μM and 100 μM NTBC, 24 h culture", "protocol": "Viability was tested by the LIVE/DEAD® method (Molecular probes, Invitrogen). 1 mL of bacterial culture was collected at 24 h, washed twice with phosphate buffered saline (PBS), and the pellet resuspended in 1 mL of Dubecco's modified Eagle's medium (DMEM) supplemented with 10% fetal bovine serum (FBS). Bacteria were incubated for 15 min at RT in the dark, 5 mL of the culture was used for fluorescence microscopy. Images were acquired using a QIMAGING® (Burnaby, British Columbia, Canada) cooled charge coupled-device camera on an Axioscope 2 (Carl Zeiss, Thornwood, N.Y.) microscope with an X100/1.3 numerical aperture Plan-Neofluor objective and a 50-W mercury arc lamp. Images were digitally processed using the Northern Eclipse version 6.0 imaging analysis software (Empix Imaging, Mississauga, Ontario, Canada).\nas §1"}},
  "data": [
    {"compound": "O=C1CCCC(=O)C1C(=O)c1ccc(C(F)(F)F)cc1[N+](=O)[O-]", "note": "[NTBC, 2-(2-nitro-4-trifluoromethylbenzoyl)-1,3-cyclohexanedione]", "values": [
      {"measurement": "pigment production relative to untreated MH1J", "setting": "B. cenocepacia MH1J; 10 μM NTBC", "result": "31.53±3.08", "unit": "%"},
      {"measurement": "pigment production relative to untreated MH1J", "setting": "B. cenocepacia MH1J; 100 μM NTBC", "result": "36.41±1.80", "unit": "%"},
      {"measurement": "effect on growth rate", "setting": "[1]", "result": "does not affect growth rate"},
      {"measurement": "effect on viability", "setting": "[2]", "result": "does not affect growth rate or viability"}
    ]}
  ]
}
